Reference: ChEMBL document CHEMBL3352224, “Synthesis and biological evaluation of piperlongumine derivatives as potent anti-inflammatory agents” (Bioorg Med Chem Lett, 2014)

Experiments:
RAW264.7 [1] = assay: Antiinflammatory activity in mouse RAW264.7 cells assessed as inhibition of LPS-induced NO production at 10 uM; assay type: functional
RAW264.7 [2] = assay: Antiinflammatory activity in mouse RAW264.7 cells assessed as inhibition of LPS-induced NO production; assay type: functional, cell-based
RAW264.7 [3] = assay: Antiinflammatory activity in mouse RAW264.7 cells assessed as inhibition of LPS-induced NO production at 1 uM; assay type: functional
[4] = Cytotoxicity against mouse RAW264.7 cells assessed as cell proliferation at 10 uM; assay type: cell-based; details: read-out: Activity
[5] = Cytotoxicity against mouse RAW264.7 cells assessed as cell proliferation at 1 uM; assay type: cell-based; details: read-out: Activity

Row | IC50 (RAW264.7 [2]) [µM] | SMILES | inhibition at 10 µM (RAW264.7 [1]) [%] | inhibition at 1 µM (RAW264.7 [3]) [%] | viability at 10 µM [4] [%] | viability at 1 µM [5] [%]
1 | 341 | COc1cc(/C=C/C(=O)NC(C)=O)cc(OC)c1OC | 16 | -1 | 104 | 104
2 | 80 | COc1cc(/C=C/C(=O)N2CCCC2=O)cc(OC)c1OC | 28 | 1 | 102 | 105
3 | 3 | COc1cc(/C=C/C(=O)N2CCC=CC2=O)cc(OC)c1OC [PIPLARTINE] | 91 | 11 | 77 | 115
4 | 14 | COc1cc(/C=C/C(=O)N2CCCCC2=O)cc(OC)c1OC | 46 | 1 | 101 | 107
5 | 64 | CCC(=O)NC(=O)/C=C/c1cc(OC)c(OC)c(OC)c1 | 16 | -1 | 103 | 97
6 | 64 | COc1cc(/C=C/C(=O)N2CCC2=O)cc(OC)c1OC | 22 | 1 | 92 | 97
